According to ChEMBL document CHEMBL3885881, “DrugMatrix”:

Species on record: Rattus norvegicus
Test: DrugMatrix - Regimen: Daily Repeat
Assay type: toxicity, organism-based, Sprague-Dawley
Set-up: regimen Daily Repeat, gender Male, age 6-8 weeks
Conditions: in vivo, po, route oral GAVAGE, vehicle 100 % WATER; for ABSOLUTE BASOPHIL / ABSOLUTE EOSINOPHIL / ABSOLUTE LYMPHOCYTE / ABSOLUTE MONOCYTE / ABSOLUTE SEGMENTED NEUTROPHIL / BASOPHIL / EOSINOPHIL / ERYTHROCYTE COUNT / HEMATOCRIT / HEMOGLOBIN / LEUKOCYTE COUNT / LYMPHOCYTE / MEAN CORPUSCULAR HEMOGLOBIN / MEAN CORPUSCULAR HEMOGLOBIN CONCENTRATION / MEAN CORPUSCULAR VOLUME / MONOCYTE / NEUTROPHIL / NUCLEATED RED BLOOD CELLS / PLATELET COUNT: tissue Blood; for ALANINE AMINOTRANSFERASE / ALBUMIN / ALKALINE PHOSPHATASE / ASPARTATE AMINOTRANSFERASE / BLOOD UREA NITROGEN / CARBON DIOXIDE / CHLORIDE / CHOLESTEROL / CREATINE PHOSPHOKINASE / CREATININE / GLUCOSE / LACTATE DEHYDROGENASE / LIPASE / PHOSPHORUS / POTASSIUM / SODIUM / TOTAL BILIRUBIN / TOTAL PROTEIN / URIC ACID: tissue Plasma
[1] = 46 mg/kg, 72 h, dose level High, time 3 day
[2] = 46 mg/kg, 120 h, dose level High, time 5 day
[3] = […], 72 h, dose 4.6 mg/Kg, dose level Low, time 3 day
[4] = […], 120 h, dose 4.6 mg/Kg, dose level Low, time 5 day

`CC(C)NNC(=O)c1ccncc1` [IPRONIAZID] was tested, and the “ABSOLUTE BASOPHIL” value [1] was 0 CELLS/uL, the “ABSOLUTE EOSINOPHIL” value [1] was 0 CELLS/uL and the “ABSOLUTE LYMPHOCYTE” value [1] was 9249.33 CELLS/uL. The “ABSOLUTE MONOCYTE” value [1] was 21.67 CELLS/uL, the “ABSOLUTE SEGMENTED NEUTROPHIL” value [1] was 762.33 CELLS/uL and the BASOPHIL [1] was 0%. For the same compound, the EOSINOPHIL [1] was 0%, the “ERYTHROCYTE COUNT” value [1] was 5.56 x10E6/uL and the HEMATOCRIT [1] was 34.37%. For the same compound, the HEMOGLOBIN [1] was 13.47 G/DL, the “LEUKOCYTE COUNT” value [1] was 10.03 x10E3/uL and the LYMPHOCYTE [1] was 91.33%. For the same compound, the “MEAN CORPUSCULAR HEMOGLOBIN” value [1] was 24.27 pg, the “MEAN CORPUSCULAR HEMOGLOBIN CONCENTRATION” value [1] was 39.17 G/DL and the “MEAN CORPUSCULAR VOLUME” value [1] was 61.87 fL. The MONOCYTE [1] was 0.33%, the NEUTROPHIL [1] was 8.33% and the “NUCLEATED RED BLOOD CELLS” value [1] was 0 /100WBC. The “PLATELET COUNT” value [1] was 1304.67 x10E3/uL, the “ALANINE AMINOTRANSFERASE” value [1] was 37 u/L and the ALBUMIN [1] was 4.23 G/DL. For the same compound, the “ALKALINE PHOSPHATASE” value [1] was 308 u/L, the “ASPARTATE AMINOTRANSFERASE” value [1] was 89 u/L and the “BLOOD UREA NITROGEN” value [1] was 17 mg/dL. The “CARBON DIOXIDE” value [1] was 29 mmol/L, the CHLORIDE [1] was 103 MEQ/L and the CHOLESTEROL [1] was 80.67 mg/dL. The “CREATINE PHOSPHOKINASE” value [1] was 622.67 u/L, the CREATININE [1] was 0.21 mg/dL and the GLUCOSE [1] was 160.67 mg/dL. The “LACTATE DEHYDROGENASE” value [1] was 288.33 u/L, the LIPASE [1] was 11.67 u/L and the PHOSPHORUS [1] was 12.93 mg/dL. The POTASSIUM [1] was 6.22 MEQ/L, the SODIUM [1] was 145.5 MEQ/L and the “TOTAL BILIRUBIN” value [1] was 0.17 mg/dL. For the same compound, the “TOTAL PROTEIN” value [1] was 5.97 G/DL, the “URIC ACID” value [1] was 1.77 mg/dL and the “ABSOLUTE BASOPHIL” value [2] was 0 CELLS/uL. For the same compound, the “ABSOLUTE EOSINOPHIL” value [2] was 126 CELLS/uL, the “ABSOLUTE LYMPHOCYTE” value [2] was 15175.33 CELLS/uL and the “ABSOLUTE MONOCYTE” value [2] was 93.67 CELLS/uL. The “ABSOLUTE SEGMENTED NEUTROPHIL” value [2] was 271.67 CELLS/uL, the BASOPHIL [2] was 0% and the EOSINOPHIL [2] was 0.67%. For the same compound, the “ERYTHROCYTE COUNT” value [2] was 5.63 x10E6/uL, the HEMATOCRIT [2] was 33.73% and the HEMOGLOBIN [2] was 13.4 G/DL. For the same compound, the “LEUKOCYTE COUNT” value [2] was 15.67 x10E3/uL, the LYMPHOCYTE [2] was 97% and the “MEAN CORPUSCULAR HEMOGLOBIN” value [2] was 23.8 pg. For the same compound, the “MEAN CORPUSCULAR HEMOGLOBIN CONCENTRATION” value [2] was 39.77 G/DL, the “MEAN CORPUSCULAR VOLUME” value [2] was 59.8 fL and the MONOCYTE [2] was 0.67%. For the same compound, the NEUTROPHIL [2] was 1.67%, the “NUCLEATED RED BLOOD CELLS” value [2] was 0 /100WBC and the “PLATELET COUNT” value [2] was 1219.33 x10E3/uL. For the same compound, the “ALANINE AMINOTRANSFERASE” value [2] was 39 u/L, the ALBUMIN [2] was 3.87 G/DL and the “ALKALINE PHOSPHATASE” value [2] was 312.33 u/L. The “ASPARTATE AMINOTRANSFERASE” value [2] was 118.33 u/L, the “BLOOD UREA NITROGEN” value [2] was 18.67 mg/dL and the “CARBON DIOXIDE” value [2] was 22 mmol/L. For the same compound, the CHLORIDE [2] was 106.67 MEQ/L, the CHOLESTEROL [2] was 56 mg/dL and the “CREATINE PHOSPHOKINASE” value [2] was 1266.33 u/L. For the same compound, the CREATININE [2] was 0.24 mg/dL, the GLUCOSE [2] was 163.67 mg/dL and the “LACTATE DEHYDROGENASE” value [2] was 328.67 u/L. For the same compound, the LIPASE [2] was 10 u/L, the PHOSPHORUS [2] was 11.83 mg/dL and the POTASSIUM [2] was 5.65 MEQ/L. The SODIUM [2] was 148.8 MEQ/L, the “TOTAL BILIRUBIN” value [2] was 0.23 mg/dL and the “TOTAL PROTEIN” value [2] was 5.53 G/DL. For the same compound, the “URIC ACID” value [2] was 1.8 mg/dL, the “ABSOLUTE BASOPHIL” value [3] was 0 CELLS/uL and the “ABSOLUTE EOSINOPHIL” value [3] was 0 CELLS/uL. The “ABSOLUTE LYMPHOCYTE” value [3] was 11668 CELLS/uL, the “ABSOLUTE MONOCYTE” value [3] was 117.67 CELLS/uL and the “ABSOLUTE SEGMENTED NEUTROPHIL” value [3] was 1081 CELLS/uL. For the same compound, the BASOPHIL [3] was 0%, the EOSINOPHIL [3] was 0% and the “ERYTHROCYTE COUNT” value [3] was 4.84 x10E6/uL. For the same compound, the HEMATOCRIT [3] was 31.5%, the HEMOGLOBIN [3] was 12.83 G/DL and the “LEUKOCYTE COUNT” value [3] was 12.87 x10E3/uL. The LYMPHOCYTE [3] was 90.33%, the “MEAN CORPUSCULAR HEMOGLOBIN” value [3] was 26.5 pg and the “MEAN CORPUSCULAR HEMOGLOBIN CONCENTRATION” value [3] was 40.77 G/DL. For the same compound, the “MEAN CORPUSCULAR VOLUME” value [3] was 65 fL, the MONOCYTE [3] was 1% and the NEUTROPHIL [3] was 8.67%. For the same compound, the “NUCLEATED RED BLOOD CELLS” value [3] was 0 /100WBC, the “PLATELET COUNT” value [3] was 1111.67 x10E3/uL and the “ALANINE AMINOTRANSFERASE” value [3] was 56 u/L. For the same compound, the ALBUMIN [3] was 4.23 G/DL, the “ALKALINE PHOSPHATASE” value [3] was 342.67 u/L and the “ASPARTATE AMINOTRANSFERASE” value [3] was 108 u/L. The “BLOOD UREA NITROGEN” value [3] was 13.67 mg/dL, the “CARBON DIOXIDE” value [3] was 26.33 mmol/L and the CHLORIDE [3] was 105 MEQ/L. For the same compound, the CHOLESTEROL [3] was 80.67 mg/dL, the “CREATINE PHOSPHOKINASE” value [3] was 777.33 u/L and the CREATININE [3] was 0.24 mg/dL. For the same compound, the GLUCOSE [3] was 165.67 mg/dL, the “LACTATE DEHYDROGENASE” value [3] was 493.33 u/L and the LIPASE [3] was 8.33 u/L. For the same compound, the PHOSPHORUS [3] was 13.3 mg/dL, the POTASSIUM [3] was 6.06 MEQ/L and the SODIUM [3] was 144.47 MEQ/L. The “TOTAL BILIRUBIN” value [3] was 0.17 mg/dL, the “TOTAL PROTEIN” value [3] was 5.67 G/DL and the “URIC ACID” value [3] was 1.5 mg/dL. The “ABSOLUTE BASOPHIL” value [4] was 0 CELLS/uL, the “ABSOLUTE EOSINOPHIL” value [4] was 175.33 CELLS/uL and the “ABSOLUTE LYMPHOCYTE” value [4] was 14127.33 CELLS/uL. For the same compound, the “ABSOLUTE MONOCYTE” value [4] was 0 CELLS/uL, the “ABSOLUTE SEGMENTED NEUTROPHIL” value [4] was 1364 CELLS/uL and the BASOPHIL [4] was 0%. The EOSINOPHIL [4] was 1%, the “ERYTHROCYTE COUNT” value [4] was 5.43 x10E6/uL and the HEMATOCRIT [4] was 34.73%. The HEMOGLOBIN [4] was 13.6 G/DL, the “LEUKOCYTE COUNT” value [4] was 15.67 x10E3/uL and the LYMPHOCYTE [4] was 90.33%. For the same compound, the “MEAN CORPUSCULAR HEMOGLOBIN” value [4] was 25.07 pg, the “MEAN CORPUSCULAR HEMOGLOBIN CONCENTRATION” value [4] was 39.17 G/DL and the “MEAN CORPUSCULAR VOLUME” value [4] was 63.97 fL. The MONOCYTE [4] was 0%, the NEUTROPHIL [4] was 8.67% and the “NUCLEATED RED BLOOD CELLS” value [4] was 0 /100WBC. The “PLATELET COUNT” value [4] was 1364.67 x10E3/uL, the “ALANINE AMINOTRANSFERASE” value [4] was 58.33 u/L and the ALBUMIN [4] was 4.33 G/DL. The “ALKALINE PHOSPHATASE” value [4] was 411.67 u/L, the “ASPARTATE AMINOTRANSFERASE” value [4] was 88.33 u/L and the “BLOOD UREA NITROGEN” value [4] was 18.33 mg/dL. The “CARBON DIOXIDE” value [4] was 27.33 mmol/L, the CHLORIDE [4] was 103 MEQ/L and the CHOLESTEROL [4] was 72 mg/dL. For the same compound, the “CREATINE PHOSPHOKINASE” value [4] was 231.67 u/L, the CREATININE [4] was 0.23 mg/dL and the GLUCOSE [4] was 179 mg/dL. For the same compound, the “LACTATE DEHYDROGENASE” value [4] was 197.33 u/L, the LIPASE [4] was 11 u/L and the PHOSPHORUS [4] was 14.8 mg/dL. The POTASSIUM [4] was 6.06 MEQ/L, the SODIUM [4] was 146.8 MEQ/L and the “TOTAL BILIRUBIN” value [4] was 0.2 mg/dL. For the same compound, the “TOTAL PROTEIN” value [4] was 6.07 G/DL and the “URIC ACID” value [4] was 2.07 mg/dL.
